Results as given in article PMC3866048 (Bioorganic & medicinal chemistry, 2011).
Where two headings read alike, the source gives them in different places.

Tests used:
[1] = biological target: T1, HIV-1 integrase (wild-type IN) (Human immunodeficiency virus type 1 group M subtype B, UniProt P12497); assay: biochemical
[2] = biological target: T1, HIV-1 integrase (wild-type IN); assay: biochemical; remark: listed apart in the source
[3] = tested on: wild-type HIV-1 strain (strain LAI); assay: Anti-HIV-1 activity in infected human PBMCs; format: cell-based; conditions: cytotoxicity versus anti-HIV activity
[4] = IC50 ST (strand transfer), wild-type IN 200 nM, 7.5 mM MnCl2
[5] = Actual ST pIC50, −log IC50 of strand transfer, used for 3D-QSAR

| Compound | IC50 [1] | IC50 [2, 4] | further results |
| --- | --- | --- | --- |
| O=Cc1cc(Br)cc(C(=O)NCc2ccc(F)cc2)c1O [Compound 8, 5-Bromo-N-(4-fluorobenzyl)-3-formyl-2-hydroxybenzamide] | > 100 µM |  |  |
| O=C(O)c1cccc(CCCc2ccccc2)c1O [Compound 9, 2-hydroxy-3-(3-phenylpropyl)benzoic acid] | 91 µM | > 100 µM |  |
| O=C(O)c1cc(Br)cc(C(=O)/C=C/c2c(Cl)ccc(Cl)c2Cl)c1O [Compound 25, 5-Bromo-2-hydroxy-3-[3-(2,3,6-trichlorophenyl)-acryloyl]benzoic acid] |  | < 3.7 µM | IC50 [2, 5]: 3.98 µM |
| O=C(O)c1cc(Cl)cc(C(=O)/C=C/c2ccc(Cl)cc2Cl)c1O [Compound 27, 5-Chloro-3-[3-(2,4-dichlorophenyl)-acryloyl]-2-hydroxybenzoic acid] |  | > 100 µM |  |
| Cc1cc(C)cc(/C=C/C(=O)c2cc(Br)cc(C(=O)O)c2O)c1 [Compound 39, 5-Bromo-3-[3-(3,5-dimethylphenyl)-acryloyl]-2-hydroxybenzoic acid] | > 100 µM |  |  |
| COc1ccc(/C=C/C(=O)c2cc(Br)cc(C(=O)O)c2O)c(Cl)c1OC [Compound 40, 5-Bromo-3-[3-(2-chloro-3,4-dimethoxyphenyl)-acryloyl]-2-hydroxybenzoic acid] | > 100 µM |  |  |
| COc1cc(F)c(/C=C/C(=O)c2cc(Br)cc(C(=O)O)c2O)cc1OC [Compound 41, 5-Bromo-3-[3-(2-fluoro-4,5-dimethoxyphenyl)-acryloyl]-2-hydroxybenzoic acid] | > 100 µM |  |  |
| COc1ccc2cc(C=CC(=O)c3cc(Br)cc(C(=O)O)c3O)ccc2c1 [Compound 48, 5-Bromo-2-hydroxy-3-[3-(6-methoxynaphthalen-2-yl)-acryloyl]benzoic acid] |  | 54 ± 25 µM | IC50 [2, 5]: 55 µM |
| O=C(O)c1cc(Br)cc(C(=O)/C=C/c2ccc3sccc3c2)c1O [Compound 49, 3-(3-Benzo[b]thiophen-5-yl-acryloyl)-5-bromo-2-hydroxybenzoic acid] |  |  | Selectivity index [3]: up to 4 fold |
| O=C(O)c1cc(Br)cc(C(=O)/C=C/c2ccccc2-c2ccco2)c1O [Compound 50, 5-Bromo-3-[3-(2-furan-2-yl-phenyl)-acryloyl]-2-hydroxybenzoic acid] | > 100 µM |  |  |
| O=C(O)c1cc(Br)cc(C(=O)/C=C/c2cccc(OC(F)(F)F)c2)c1O [Compound 52, 5-Bromo-2-hydroxy-3-[3-(3-trifluoromethoxyphenyl)-acryloyl]benzoic acid] | > 100 µM |  |  |
| N#Cc1cc(Br)cc(C(=O)/C=C/c2c(Cl)ccc(Cl)c2Cl)c1O [Compound 56, 5-Bromo-2-hydroxy-3-[3-(2,3,6--trichlorophenyl)-acryloyl]benzonitrile] | > 100 µM |  |  |
| Cc1cc(C(=O)O)c(O)c(C(=O)/C=C/c2c(Cl)ccc(Cl)c2Cl)c1 [Compound 57, 2-Hydroxy-5-methyl-3-[3-(2,3,6-trichlorophenyl)-acryloyl]benzoic acid] | > 100 µM |  | Times less active than corresponding Br-substituted compound 25 ([2]; ST inhibition, comparison with compound 25): 13 times |
| O=C(/C=C/c1cc(Cl)cc(Cl)c1Cl)c1cc(Br)cc([N+](=O)[O-])c1O [Compound 58, 1-(5-Bromo-2-hydroxy-3-nitrophenyl)-3-(2,3,5-trichlorophenyl)propenone] | > 333 µM | 68 ± 5 µM | IC50 [2, 5]: 69.2 µM |
| O=C(/C=C/c1c(Cl)ccc(Cl)c1Cl)c1cc(Br)cc([N+](=O)[O-])c1O [Compound 59, 1-(5-Bromo-2-hydroxy-3-nitrophenyl)-3-(2,3,6-trichlorophenyl)propenone] | 36 ± 4 µM | 21 ± 3 µM | IC50 [2, 5]: 21.4 µM |
| O=C(O)c1cc(F)cc(C(=O)CCc2cc(Cl)ccc2Cl)c1O [Compound 60, 3-[3-(2,5-dichlorophenyl)propionyl]-5-fluoro-2-hydroxybenzoic acid] | > 100 µM |  |  |
| O=C(O)c1cc(Br)cc(C(=O)NCc2ccc(F)cc2)c1O [Compound 61, 5-Bromo-N-(4-fluorobenzyl)-2-hydroxyisophthalamic acid] | > 100 µM |  |  |
| Cc1cccc(C(=O)NCc2ccc(F)cc2)c1O [Compound 62, N-(4-Fluoro-benzyl)-2-hydroxy-3-methylbenzamide] |  | > 100 µM |  |
| O=C(NCc1ccc(F)cc1)c1cc(Br)ccc1O [Compound 63, 5-Bromo-N-(4-fluoro-benzyl)-2-hydroxybenzamide] |  | > 100 µM |  |
